Data: patent US11464770B2, “Anticancer pharmaceutical composition” (NATIONAL CANCER CENTER, priority 2016, dated 2022)
Read-outs that look alike come from different tables or passages of the source.

Test system: colorectal cancer cell lines (e.g. DLD-1, HCT 116, SW620, HCT-15, HCT-8, RKO)
Assay: Cell based assay, cell viability (CellTiter-Glo), colorectal cancer cell lines
Procedure: Commercially available bladder cancer, prostate cancer, lung cancer, breast cancer, blood cancer, pancreatic cancer, colorectal cancer, brain cancer, neuroblastoma, melanoma, liver cancer, cervical carcinoma, ovarian cancer, renal cancer, and papilloma cell lines were each treated with trypsin-EDTA and cultured, followed by being seeded in each well of a 96 well plate. After 24 hours of treatment at constant temperature, the respective cells were treated with the candidate compound so that a final concentration became 0 to 2 μM. The treated cells were additionally cultured for 72 hours, and cell viability was measured by using an ATP detection method (CellTiter-Glo® Luminescent Cell Viability Assay, Promega).

[1] = Homo sapiens, DLD-1, 72 hours treatment, read-out: IC50, colorectal cancer cell line DLD-1
[2] = Homo sapiens, HCT 116, 72 hours treatment, read-out: IC50, colorectal cancer cell line HCT 116
[3] = Homo sapiens, HCT-8, 72 hours treatment, read-out: IC50, colorectal cancer cell line HCT-8
[4] = Homo sapiens, HCT-15, 72 hours treatment, read-out: IC50, colorectal cancer cell line HCT-15
[5] = Homo sapiens, HT-29, 72 hours treatment, read-out: IC50, colorectal cancer cell line HT-29
[6] = Homo sapiens, LoVo, 72 hours treatment, read-out: IC50, colorectal cancer cell line LoVo
[7] = Homo sapiens, SW480, 72 hours treatment, read-out: IC50, colorectal cancer cell line SW480
[8] = Homo sapiens, SW-620, SW620, 72 hours treatment, read-out: IC50, colorectal cancer cell line SW620
[9] = RKO, 72 hours treatment, read-out: IC50, colorectal cancer cell line RKO
[10] = Homo sapiens, DLD-1 cells, 72 hours treatment, read-out: IC50, colorectal cancer cell line DLD-1
[11] = Homo sapiens, HCT 116 cells, 72 hours treatment, read-out: IC50, colorectal cancer cell line HCT 116
[12] = Homo sapiens, HCT-8 cells, 72 hours treatment, read-out: IC50, colorectal cancer cell line HCT-8
[13] = Homo sapiens, HCT-15 cells, 72 hours treatment, read-out: IC50, colorectal cancer cell line HCT-15
[14] = Homo sapiens, HT-29 cells, 72 hours treatment, read-out: IC50, colorectal cancer cell line HT-29
[15] = Homo sapiens, LoVo cells, 72 hours treatment, read-out: IC50, colorectal cancer cell line LoVo
[16] = Homo sapiens, RKO cells, 72 hours treatment, read-out: IC50, colorectal cancer cell line RKO
[17] = Homo sapiens, SW480 cells, 72 hours treatment, read-out: IC50, colorectal cancer cell line SW480
[18] = Homo sapiens, SW-620, SW620 cells, 72 hours treatment, read-out: IC50, colorectal cancer cell line SW620

CC(=O)c1c([S+](C)[O-])n(Cc2ccc(F)c(Cl)c2)c2c(Br)ccc(Cl)c2c1=O (stereo not drawn) [Compound 22, 3-acetyl-8-bromo-5-chloro-1-(3-chloro-4-fluorobenzyl)-2-(methylsulfinyl)quinolin-4(1H)-one]
IC50 [1]: > 2 µM
IC50 [2]: > 2 µM
IC50 [3]: > 2 µM
IC50 [4]: > 2 µM
IC50 [5]: > 10 µM
IC50 [6]: > 2 µM
IC50 [7]: > 2 µM
IC50 [8]: > 2 µM
IC50 [9]: > 2 µM

CC(=O)c1c([S+]([O-])c2ccccc2)[nH]c2c(Br)ccc(Cl)c2c1=O (stereo not drawn) [Compound 13, 3-acetyl-8-bromo-5-chloro-2-(phenylsulfinyl)quinolin-4(1H)-one]
IC50 [1]: > 2 µM
IC50 [2]: > 2 µM
IC50 [3]: > 2 µM
IC50 [4]: > 2 µM
IC50 [5]: > 10 µM
IC50 [6]: > 2 µM
IC50 [7]: > 2 µM
IC50 [8]: > 2 µM
IC50 [9]: > 2 µM

CC(=O)c1c([S+]([O-])Cc2nonc2C)[nH]c2c(Br)ccc(Cl)c2c1=O (stereo not drawn) [Compound 106, 3-acetyl-8-bromo-5-chloro-2-(((4-methyl-1,2,5-oxadiazol-3-yl)methyl)sulfinyl)quinolin-4(1H)-one]
IC50 [10]: > 2 µM
IC50 [11]: > 2 µM
IC50 [12]: > 2 µM
IC50 [13]: > 2 µM
IC50 [14]: > 10 µM
IC50 [15]: > 2 µM
IC50 [16]: > 2 µM
IC50 [17]: > 2 µM
IC50 [18]: > 2 µM

CC(=O)c1c([S+]([O-])Cc2ccc(S(F)(F)(F)(F)F)cc2F)[nH]c2c(Br)ccc(Cl)c2c1=O (stereo not drawn) [Compound 69, 3-acetyl-8-bromo-5-chloro-2-((2-fluoro-4-(pentafluoro-16-sulfanyl)benzyl)sulfinyl)quinolin-4(1H)-one]
IC50 [1]: 0.92 µM
IC50 [2]: 1.52 µM
IC50 [3]: 1.91 µM
IC50 [4]: 1.42 µM
IC50 [5]: > 10 µM
IC50 [6]: > 2 µM
IC50 [7]: > 2 µM
IC50 [8]: 1.77 µM
IC50 [9]: 1.54 µM

CC(=O)c1c(SCc2cccc(I)c2)[nH]c2c(Br)ccc(Cl)c2c1=O [Compound 47, 3-acetyl-8-bromo-5-chloro-2-((3-iodobenzyl)thio)quinolin-4(1H)-one]
IC50 [1]: > 2 µM
IC50 [2]: > 2 µM
IC50 [3]: > 2 µM
IC50 [4]: > 2 µM
IC50 [5]: > 10 µM
IC50 [6]: > 2 µM
IC50 [7]: > 2 µM
IC50 [8]: > 2 µM
IC50 [9]: > 2 µM

CC(=O)c1c(SCc2cccc(F)c2)[nH]c2c(Br)ccc(Cl)c2c1=O [Compound 49, 3-acetyl-8-bromo-5-chloro-2-((3-fluorobenzyl)thio)quinolin-4(1H)-one]
IC50 [1]: > 2 µM
IC50 [2]: > 2 µM
IC50 [3]: > 2 µM
IC50 [4]: > 2 µM
IC50 [5]: > 10 µM
IC50 [6]: > 2 µM
IC50 [7]: > 2 µM
IC50 [8]: > 2 µM
IC50 [9]: > 2 µM

CC(=O)c1c(Sc2ccccc2)[nH]c2c(Br)ccc(Cl)c2c1=O [Compound 12, 3-acetyl-8-bromo-5-chloro-2-(phenylthio)quinolin-4(1H)-one]
IC50 [1]: > 2 µM
IC50 [2]: > 2 µM
IC50 [3]: > 2 µM
IC50 [4]: > 2 µM
IC50 [5]: > 10 µM
IC50 [6]: > 2 µM
IC50 [7]: > 2 µM
IC50 [8]: > 2 µM
IC50 [9]: > 2 µM

Cc1cc(C[S+]([O-])c2[nH]c3c(Br)ccc(Cl)c3c(=O)c2C(=O)C2CC2)no1 (stereo not drawn) [Compound 96, 8-bromo-5-chloro-3-(cyclopropanecarbonyl)-2-(((5-methylisoxazol-3-yl)methyl)sulfinyl)quinolin-4(1H)-one]
IC50 [10]: 1.82 µM
IC50 [11]: 1.53 µM
IC50 [12]: > 2 µM
IC50 [13]: 1.87 µM
IC50 [14]: > 10 µM
IC50 [15]: > 2 µM
IC50 [16]: 1.58 µM
IC50 [17]: > 2 µM
IC50 [18]: 1.66 µM

CC(=O)c1c([S+]([O-])Cc2cccc(I)c2)[nH]c2c(Br)ccc(Cl)c2c1=O (stereo not drawn) [Compound 48, 3-acetyl-8-bromo-5-chloro-2-((3-iodobenzyl)sulfinyl)quinolin-4(1H)-one]
IC50 [1]: 1.6 µM
IC50 [2]: > 2 µM
IC50 [3]: > 2 µM
IC50 [4]: > 2 µM
IC50 [5]: > 10 µM
IC50 [6]: > 2 µM
IC50 [7]: > 2 µM
IC50 [8]: > 2 µM
IC50 [9]: > 2 µM

CC(=O)c1c(S/C=C\C(=O)O)[nH]c2c(Br)ccc(Cl)c2c1=O [Compound 67, (Z)-3-((3-acetyl-8-bromo-5-chloro-4-oxo-1,4-dihydroquinolin-2-yl)thio)acrylic acid]
IC50 [1]: > 2 µM
IC50 [2]: > 2 µM
IC50 [3]: > 2 µM
IC50 [4]: > 2 µM
IC50 [5]: > 10 µM
IC50 [6]: > 2 µM
IC50 [7]: > 2 µM
IC50 [8]: > 2 µM
IC50 [9]: > 2 µM

CC(=O)c1c([S+]([O-])Cc2ccc(N)nc2)[nH]c2c(Br)ccc(Cl)c2c1=O (stereo not drawn) [Compound 100, 3-acetyl-2-(((6-aminopyridin-3-yl)methyl)sulfinyl)-8-bromo-5-chloroquinolin-4(1H)-one]
IC50 [10]: > 2 µM
IC50 [11]: > 2 µM
IC50 [12]: > 2 µM
IC50 [13]: > 2 µM
IC50 [14]: > 10 µM
IC50 [15]: > 2 µM
IC50 [16]: > 2 µM
IC50 [17]: > 2 µM
IC50 [18]: > 2 µM

COc1ccccc1Sc1[nH]c2c(Br)ccc(Cl)c2c(=O)c1C(C)=O [Compound 14, 3-acetyl-8-bromo-5-chloro-2-((2-methoxyphenyl)thio)quinolin-4(1H)-one]
IC50 [1]: > 2 µM
IC50 [2]: > 2 µM
IC50 [3]: > 2 µM
IC50 [4]: > 2 µM
IC50 [5]: > 10 µM
IC50 [6]: > 2 µM
IC50 [7]: > 2 µM
IC50 [8]: > 2 µM
IC50 [9]: > 2 µM

CSc1c(C(C)=O)c(=O)c2cc(F)ccc2n1C [Compound 7, 3-acetyl-6-fluoro-1-methyl-2-(methylthio)quinolin-4(1H)-one]
IC50 [1]: > 2 µM
IC50 [2]: > 2 µM
IC50 [3]: > 2 µM
IC50 [4]: > 2 µM
IC50 [5]: > 10 µM
IC50 [6]: > 2 µM
IC50 [7]: > 2 µM
IC50 [8]: > 2 µM
IC50 [9]: > 2 µM

CC(=O)c1c(S(C)(=O)=O)n(S(=O)(=O)c2ccc(C(C)(C)C)cc2)c2c(Br)ccc(Cl)c2c1=O [Compound 41, 3-acetyl-8-bromo-1-((4-(tert-butyl)phenyl)sulfonyl)-5-chloro-2-(methylsulfonyl)quinolin-4(1H)-one]
IC50 [1]: > 2 µM
IC50 [2]: > 2 µM
IC50 [3]: > 2 µM
IC50 [4]: > 2 µM
IC50 [5]: > 10 µM
IC50 [6]: > 2 µM
IC50 [7]: > 2 µM
IC50 [8]: > 2 µM
IC50 [9]: > 2 µM

CSc1[nH]c2c(Br)ccc(Cl)c2c(=O)c1C(C)=O [Compound 2, 3-acetyl-8-bromo-5-chloro-2-(methylthio)quinolin-4(1H)-one]
IC50 [1]: > 2 µM
IC50 [2]: > 2 µM
IC50 [3]: > 2 µM
IC50 [4]: > 2 µM
IC50 [5]: > 10 µM
IC50 [6]: > 2 µM
IC50 [7]: > 2 µM
IC50 [8]: > 2 µM
IC50 [9]: > 2 µM

CC(=O)c1c(S(=O)(=O)Cc2ccccc2)nc2c(Br)ccc(Cl)c2c1O [Compound 54, 1-(2-(benzylsulfonyl)-8-bromo-5-chloro-4-hydroxyquinolin-3-yl)ethan-1-one]
IC50 [1]: > 2 µM
IC50 [2]: > 2 µM
IC50 [3]: > 2 µM
IC50 [4]: > 2 µM
IC50 [5]: > 10 µM
IC50 [6]: > 2 µM
IC50 [7]: > 2 µM
IC50 [8]: > 2 µM
IC50 [9]: > 2 µM

CSc1c(C(C)=O)c(=O)c2c(Cl)ccc(Br)c2n1S(C)(=O)=O [Compound 35, 3-acetyl-8-bromo-5-chloro-1-(methylsulfonyl)-2-(methylthio)quinolin-4(1H)-one]
IC50 [1]: > 2 µM
IC50 [2]: > 2 µM
IC50 [3]: > 2 µM
IC50 [4]: > 2 µM
IC50 [5]: > 10 µM
IC50 [6]: > 2 µM
IC50 [7]: > 2 µM
IC50 [8]: > 2 µM
IC50 [9]: > 2 µM
